Measured values taken from patent US9079853B2, “Isatin compounds, compositions and methods for treatment of degenerative diseases and disorders” (MUSC FOUNDATION FOR RESEARCH DEVELOPMENT, priority 2013, dated 2015).

Legend:
[1] = test system: 661W or C6 cells; assay: MTT assay, protection against calcium-ionophore A23187; type: cell-based; settings: for MTT, % protection: 1 μM A23187, 24 h
Description: The compound 3-(4,5-Dimethylthiazol-2-yl)-2,5-diphenyltetrazolium bromide (MTT) is a tetrazolium ion that is reduced to a blue formazan dye via several families of NAD(P)H-dependent oxidoreductases. Formation of the formazan dye from MTT or other related tetrazolium dyes are commonly used as a viability assay even though, in fact, the assay is a metabolic capacity assay.
In this assay, 661W or C6 cells were maintained in DMEM supplemented with 10% FBS. 100 μL of 70,000 cells/mL cells were seeded into each well of 96 well plates using DMEM supplemented with 5% FBS. Cells were then allowed to grow to confluency for 48 hours. The compounds of the invention were added in 2 μL media and calcium-ionophore A23187 was then added in 1 μL for a final concentration of 1 μM and after 24 h, 20 μL of […] MTT were added to each well and the cells were incubated for another 4 h after which 100 μL of 1% SDS in 0.01M aqueous HCl were added to each well and the plates were incubated overnight. Absorbance was measured at […] (background correction). The 1 μM ionophore A23187 caused about 50% loss in MTT signal at 24 h. Protection was calculated as the increase in absorbance of treatment groups normalized to the vehicle control.

[2] = test system: 661W or C6 cells; assay: XF FCCP-uncoupled oxygen consumption rate assay (IBMX challenge); type: cell-based; settings: 24 h;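 on XF FCCP OCR (% Ctrl): values normalized to the vehicle control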
Description: The XF FCCP-uncoupled oxygen consumption rate assay assesses mitochondrial capacity by measuring cellular respiration. It was shown that the maximum FCCP-uncoupled oxygen consumption rate (OCR) was a good estimate of maximal mitochondrial capacity (Beeson 2010) and that IBMX treatment of 661W or C6 cells for 24 h caused a loss in maximal uncoupled OCR (Perron 2013). Thus, cells were pretreated with the exemplified compounds for 1 h, added 600 μM IBMX and then measured the uncoupled rate after 24 h. In brief, the OCR measurements were performed using a Seahorse Bioscience XF instrument (Seahorse Bioscience, Billerica, Md.), as previously published (Perron 2013). O2 leakage through the plastic sides and bottom of the plate was accounted for using the AKOS algorithm in the XF software package. Cells were plated on 96- or 24-well custom plates designed for use in the XF and grown to confluency in DMEM+5% FBS (48 h). The medium was then replaced with DMEM+1% FBS for 24 h, along with any treatments.

COc1cccc(C(=O)CC2(O)C(=O)N(CC(C)C)c3ccc(Cl)cc32)n1 (centres unmarked) [Example 17, 5-chloro-3-hydroxy-1-isobutyl-3-(2-(6-methoxypyridin-2-yl)-2-oxoethyl)indolin-2-one]
MTT, % protection ([1]; compound 100 nM): 111%,

COc1cc(CC2(OC(=O)c3ccccc3)C(=O)N(CC(C)C)c3ccc(C)cc32)cc(OC)c1OC (centres unmarked) [Example 36, 1-isobutyl-5-methyl-2-oxo-3-(3,4,5-trimethoxybenzyl)indolin-3-yl benzoate]
MTT, % protection ([1]; compound 100 nM): 86.8%,

CCCN1C(=O)C(O)(CC(=O)c2ccc(OC)nc2OC)c2cc(C)ccc21 (centres unmarked) [Example 25, 3-(2-(2,6-dimethoxypyridin-3-yl)-2-oxoethyl)-3-hydroxy-5-methyl-1-propylindolin-2-one]
activity at 0.001 µM ([2]; compound 1 nM, 1 h pretreatment, 600 μM IBMX, read-out: XF FCCP OCR (% Ctrl)): 57%
MTT, % protection ([1]; compound 1 nM): 73.8%,

COc1cccc(CC2(OC(=O)c3ccccc3)C(=O)N(CCC(C)C)c3ccc(Cl)cc32)c1O (centres unmarked) [Example 55, 5-chloro-3-(2-hydroxy-3-methoxybenzyl)-1-isopentyl-2-oxoindolin-3-yl benzoate]
MTT, % protection ([1]; compound 1 nM): 67.4%,

C#Cc1cccc(C(=O)CC2(O)C(=O)N(CCC)c3ccc(Cl)cc32)n1 (centres unmarked) [Example 14, 5-chloro-3-(2-(6-ethynylpyridine-2-yl)-2-oxoethyl)-3-hydroxy-1-propylindolin-2-one]
MTT, % protection ([1]; compound 100 nM): 69.6%,

CCCN1C(=O)C(O)(Cc2ccc(OC)cn2)c2cc(Cl)ccc21 (centres unmarked) [Example 5, 5-chloro-3-hydroxy-3-((5-methoxypyridin-2-yl)methyl)-1-propylindolin-2-one]
MTT, % protection ([1]; compound 1 nM): 39.2%,

CC(C)CN1C(=O)C(O)(CC(=O)c2ccccn2)c2ccccc21 (centres unmarked) [Example 16, 3-hydroxy-1-isobutyl-3-(2-oxo-2-(pyridin-2-yl)ethyl)indolin-2-one]
MTT, % protection ([1]; compound 100 nM): 78.7%,

Cc1ccc2c(c1)C(O)(Cc1ncccc1Br)C(=O)N2CCC(C)C (centres unmarked) [Example 1, 3-((3-bromopyridin-2-yl)methyl)-3-hydroxy-1-isopentyl-5-methylindolin-2-one]
MTT, % protection ([1]; compound 1 μM): 12%,

CCCN1C(=O)C(Cc2ccc(OC)c(OC)c2)(OC(=O)c2ccccc2)c2cc(C)ccc21 (centres unmarked) [Example 47, 3-(3,4-dimethoxybenzyl)-5-methyl-2-oxo-1-propylindolin-3-yl benzoate]
MTT, % protection ([1]; compound 1 nM): 21.8%,

COc1ccc(CC2(O)C(=O)N(CCc3ccccc3)c3ccc(C)cc32)nc1 (centres unmarked) [Example 11, 3-hydroxy-3-((5-methoxypyridin-2-yl)methyl)-5-methyl-1-phenethylindolin-2-one]
MTT, % protection ([1]; compound 1 μM): 35.7%,

CCN1C(=O)C(O)(Cc2ncccc2OC)c2cc(C)ccc21 (centres unmarked) [Example 8, 1-ethyl-3-hydroxy-3-((3-methoxypyridin-2-yl)methyl)-5-methylindolin-2-one]
MTT, % protection ([1]; compound 1 nM): 65.9%,

CCCN1C(=O)C(Cc2ccc(OC)cc2O)(OC(=O)c2ccccc2)c2ccccc21 (centres unmarked) [Example 52, 3-(2-hydroxy-4-methoxybenzyl)-2-oxo-1-propylindolin-3-yl benzoate]
MTT, % protection ([1]; compound 100 nM): 24%,

CC(C)CN1C(=O)C(O)(CC(=O)c2c[nH]c3ccccc23)c2ccccc21 (centres unmarked) [Example 20, 3-(2-(1H-indol-3-yl)-2-oxoethyl)-3-hydroxy-1-isobutylindolin-2-one]
MTT, % protection ([1]; compound 100 nM): 59.5%,

CCCN1C(=O)C(O)(Cc2cn(C(=O)c3ccccc3)c3ccccc23)c2cc(C)ccc21 (centres unmarked) [Example 64, 3-((1-benzoyl-1H-indol-3-yl)methyl)-3-hydroxy-5-methyl-1-propylindolin-2-one]
MTT, % protection ([1]; compound 100 nM): 51.5%,

CCN1C(=O)C(Cc2cc(OC)ccc2O)(OC(=O)c2ccccc2)c2cc(C)ccc21 (centres unmarked) [Example 60, 1-ethyl-3-(2-hydroxy-5-methoxybenzyl)-5-methyl-2-oxoindolin-3-yl benzoate]
MTT, % protection ([1]; compound 1 nM): 68.7%,

CCN1C(=O)C(Cc2ccc(OC)cc2O)(OC(=O)c2ccccc2)c2ccccc21 (centres unmarked) [Example 57, 1-ethyl-3-(2-hydroxy-4-methoxybenzyl)-2-oxoindolin-3-yl benzoate]
MTT, % protection ([1]; compound 800 pM): 71%,

COc1ccc(O)c(CC2(OC(=O)c3ccccc3)C(=O)N(CC(C)C)c3ccccc32)c1 (centres unmarked) [Example 54, 3-(2-hydroxy-5-methoxybenzyl)-1-isobutyl-2-oxoindolin-3-yl benzoate]
MTT, % protection ([1]; compound 800 pM): 85.8%,

COc1cc(CC2(OC(=O)c3ccccc3)C(=O)N(CC(C)C)c3ccccc32)cc(OC)c1OC (centres unmarked) [Example 49, 1-isobutyl-2-oxo-3-(3,4,5-trimethoxybenzyl)indolin-3-yl benzoate]
MTT, % protection ([1]; compound 800 pM): 78.3%,

CC(C)Cn1c(=O)n(C)c(=O)c2[nH]cnc21 [IBMX, reference compound]
decrease in the uncoupled rate (OCR) ([2]; IBMX treatment alone, 600 μM): ~50%

COc1cccc(C(=O)CC2(O)C(=O)N(CC(C)C)c3ccc(C)cc32)n1 (centres unmarked) [Example 29, 3-hydroxy-1-isobutyl-3-(2-(6-methoxypyridin-2-yl)-2-oxoethyl)-5-methylindolin-2-one]
MTT, % protection ([1]; compound 100 nM): 98.9%,

CNc1ccc2oc(C[C@H]3O[C@@]4(CC[C@H]3C)O[C@H]([C@H](C)C(=O)c3ccc[nH]3)[C@H](C)C[C@H]4C)nc2c1C(=O)O [Example A23187, reference compound]
loss in MTT signal ([1]; 1 μM ionophore, 24 h): about 50%

CCN1C(=O)C(O)(Cc2ccccn2)c2cc(Cl)ccc21 (centres unmarked) [Example 10, 5-chloro-1-ethyl-3-hydroxy-3-(pyridin-2-ylmethyl)indolin-2-one]
MTT, % protection ([1]; compound 1 nM): 52.7%,

Cc1ccc2c(c1)C(O)(CC(=O)c1c[nH]c3ccccc13)C(=O)N2CCCN=[N+]=[N-] (centres unmarked) [Example 27, 3-(2-(1H-indol-3-yl)-2-oxoethyl)-1-(3-azidopropyl)-3-hydroxy-5-methylindolin-2-one]
MTT, % protection ([1]; compound 1 μM): 66%,

COc1ccc(CC2(OC(=O)c3ccccc3)C(=O)N(CCc3ccccc3)c3ccc(C)cc32)cc1OC (centres unmarked) [Example 44, 3-(3,4-dimethoxybenzyl)-5-methyl-2-oxo-1-phenethylindolin-3-yl benzoate]
MTT, % protection ([1]; compound 1 nM): 72%,

CCN1C(=O)C(O)(Cc2ncccc2OC)c2cc(Cl)ccc21 (centres unmarked) [Example 7, 5-chloro-1-ethyl-3-hydroxy-3-((3-methoxypyridin-2-yl)methyl)indolin-2-one]
MTT, % protection ([1]; compound 1 μM): 43.8%,

Cc1ccc2c(c1)C(O)(CC(=O)c1c[nH]c3ccccc13)C(=O)N2CCC(C)C (centres unmarked) [Example 15, 3-(2-(1H-indol-3-yl)-2-oxoethyl)-3-hydroxy-1-isopentyl-5-methylindolin-2-one]
MTT, % protection ([1]; compound 100 nM): 108.5%,

CC(C)CN1C(=O)C(O)(CC(=O)c2ccccn2)c2cc(Cl)ccc21 (centres unmarked) [Example 32, 5-chloro-3-hydroxy-1-isobutyl-3-(2-oxo-2-(pyridin-2-yl)ethyl)indolin-2-one]
MTT, % protection ([1]; compound 100 nM): 102%,

CC(C)CCN1C(=O)C(O)(CC(=O)c2c[nH]c3ccccc23)c2ccccc21 (centres unmarked) [Example 21, 3-(2-(1H-indol-3-yl)-2-oxoethyl)-3-hydroxy-1-isopentylindolin-2-one]
MTT, % protection ([1]; compound 100 nM): 82.9%,

CCN1C(=O)C(O)(CC(=O)c2ccccn2)c2cc(Cl)ccc21 (centres unmarked) [Example 19, 5-chloro-1-ethyl-3-hydroxy-3-(2-oxo-2-(pyridin-2-yl)ethyl)indolin-2-one]
MTT, % protection ([1]; compound 100 nM): 81.8%,

Cc1ccc2c(c1)C(O)(Cc1ccccn1)C(=O)N2CCc1ccccc1 (centres unmarked) [Example 9, 3-hydroxy-5-methyl-1-phenethyl-3-(pyridin-2-ylmethyl)indolin-2-one]
MTT, % protection ([1]; compound 800 pM): 62.5%,

COc1cccc(C(=O)CC2(O)C(=O)N(CCN3CCCCC3)c3ccc(Cl)cc32)n1 (centres unmarked) [Example 18, 5-chloro-3-hydroxy-3-(2-(6-methoxypyridin-2-yl)-2-oxoethyl)-1-(2-(piperidin-1-yl)ethyl)indolin-2-one]
MTT, % protection ([1]; compound 100 nM): 68.8%,

COc1ccc(CC2(OC(=O)c3ccccc3)C(=O)N(CCC(C)C)c3ccccc32)cc1OC (centres unmarked) [Example 45, 3-(3,4-dimethoxybenzyl)-1-isopentyl-2-oxoindolin-3-yl benzoate]
MTT, % protection ([1]; compound 1 nM): 63%,

COc1ccc(CC2(OC(=O)c3ccccc3)C(=O)N(CCC(C)C)c3ccc(C)cc32)cc1OC (centres unmarked) [Example 46, 3-(3,4-dimethoxybenzyl)-1-isopentyl-5-methyl-2-oxoindolin-3-yl benzoate]
MTT, % protection ([1]; compound 1 μM): 82%,

CCN1C(=O)C(Cc2cc(OC)c(OC)c(OC)c2)(OC(=O)c2ccccc2)c2cc(C)ccc21 (centres unmarked) [Example 33, 1-ethyl-5-methyl-2-oxo-3-(3,4,5-trimethoxybenzyl)indolin-3-yl benzoate]
MTT, % protection ([1]; compound 100 nM): 50%,
